From paper PMC10257182, “Discovery of senolytics using machine learning” (Nature Communications, 2023)
Where a name gives a salt, the structure may show the parent alone. Read-outs that look alike come from different tables or passages of the source.

Key:
Format in all cases: cell-based, human
[1] = tested on: senescent A549 cells (etoposide-induced); assay: Nuclei count senolytic assay, therapy-induced senescence (TIS) model, senescent cells; settings: Homo sapiens, A549, read-out: Mean % Cell Survival
Procedure, shortened: (§1)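 Nuclei counting by high-content imaging after 72 h compound treatment of senescent (etoposide-induced) versus control A549 cells. Top dose 10 μM final, lowest 10 nM.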

[2] = tested on: non-senescent control A549 cells; assay: Nuclei count senolytic assay, TIS model, non-senescent control cells; settings: Homo sapiens, A549, read-out: Mean % Cell Survival
Procedure, shortened: as §1

[3] = tested on: non-senescent control IMR90 ER:RAS cells; assay: Nuclei count (Hoechst, high content imaging) senolytic assay, OIS model, non-senescent control cells; settings: Homo sapiens
Procedure, shortened: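 We compared total nuclei counts between senescent and non-senescent IMR90 ER:RAS cells after 72 h compound exposure (10 nM–10 μM). Hoechst staining followed fixation and permeabilisation; ouabain served as senolytic positive control.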

In the case of `C[C@H](CCC(=O)NCCS(=O)(=O)O)[C@H]1CC[C@H]2[C@@H]3[C@H](O)C[C@@H]4C[C@H](O)CC[C@]4(C)[C@H]3C[C@H](O)[C@]12C` [Taurocholic acid sodium, taurocholic acid sodium salt hydrate], the viability at 0.01 µM [1] is reported as 103%, the viability at 0.0219 µM [1] is reported as 108% and the viability at 0.0468 µM [1] is reported as 103%. For the same compound, the viability at 0.1 µM [1] was 100%, the viability at 0.219 µM [1] was 109% and the viability at 0.468 µM [1] was 113%. It also gave a viability at 1 µM [1] of 112%, a viability at 2.19 µM [1] of 106% and a viability at 4.68 µM [1] of 109%. The viability at 10 µM [1] was 107%, the viability at 0.01 µM [2] was 66.6% and the viability at 0.0219 µM [2] was 32.6%. The viability at 0.0468 µM [2] was 97.7%, the viability at 0.1 µM [2] was 29.1% and the viability at 0.219 µM [2] was 62.6%. It also gave a viability at 0.468 µM [2] of 97.8%, a viability at 1 µM [2] of 95.9% and a viability at 2.19 µM [2] of 69.4%. The viability at 4.68 µM [2] was 66.2%, the viability at 10 µM [2] was 96.3% and the viability at 10 µM ([3]; IMR-90, 72 h, read-out: Mean % Cell Survival, Control, log (dose) [M] -5, 72 h, mean n=3 (Fig 3C)) was 105%. The viability at 4.677 µM ([3]; IMR-90, 72 h, read-out: Mean % Cell Survival, Control, log (dose) [M] -5.33, 72 h, mean n=3 (Fig 3C)) was 107%, the viability at 2.188 µM ([3]; IMR-90, 72 h, read-out: Mean % Cell Survival, Control, log (dose) [M] -5.66, 72 h, mean n=3 (Fig 3C)) was 115% and the viability at 1 µM ([3]; IMR-90, 72 h, read-out: Mean % Cell Survival, Control, log (dose) [M] -6, 72 h, mean n=3 (Fig 3C)) was 108%. For the same compound, the viability at 0.4677 µM ([3]; IMR-90, 72 h, read-out: Mean % Cell Survival, Control, log (dose) [M] -6.33, 72 h, mean n=3 (Fig 3C)) was 104%, the viability at 0.2188 µM ([3]; IMR-90, 72 h, read-out: Mean % Cell Survival, Control, log (dose) [M] -6.66, 72 h, mean n=3 (Fig 3C)) was 95.4% and the viability at 0.1 µM ([3]; IMR-90, 72 h, read-out: Mean % Cell Survival, Control, log (dose) [M] -7, 72 h, mean n=3 (Fig 3C)) was 81%. The viability at 0.04677 µM ([3]; IMR-90, 72 h, read-out: Mean % Cell Survival, Control, log (dose) [M] -7.33, 72 h, mean n=3 (Fig 3C)) was 94.8%, the viability at 0.02188 µM ([3]; IMR-90, 72 h, read-out: Mean % Cell Survival, Control, log (dose) [M] -7.66, 72 h, mean n=3 (Fig 3C)) was 103% and the viability at 0.01 µM ([3]; IMR-90, 72 h, read-out: Mean % Cell Survival, Control, log (dose) [M] -8, 72 h, mean n=3 (Fig 3C)) was 98.6%. For the same compound, the viability at 10 µM ([3]; IMR-90, read-out: % Cell Survival, Control cells, log (dose) [M] -5, individual replicates, SUP FIG 4C) was 105%, the viability at 4.677 µM ([3]; IMR-90, read-out: % Cell Survival, Control cells, log (dose) [M] -5.33, individual replicates, SUP FIG 4C) was 105% and the viability at 2.188 µM ([3]; IMR-90, read-out: % Cell Survival, Control cells, log (dose) [M] -5.66, individual replicates, SUP FIG 4C) was 122%. The viability at 0.2188 µM ([3]; IMR-90, read-out: % Cell Survival, Control cells, log (dose) [M] -6.66, individual replicates, SUP FIG 4C) was 98.1%, the viability at 0.02188 µM ([3]; IMR-90, read-out: % Cell Survival, Control cells, log (dose) [M] -7.66, individual replicates, SUP FIG 4C) was 103% and the viability at 0.01 µM ([3]; IMR-90, read-out: % Cell Survival, Control cells, log (dose) [M] -8, individual replicates, SUP FIG 4C) was 95%. For the same compound, the viability at 10 µM ([3]; IMR-90, read-out: % Cell Survival, Control, log (dose) [M] -5) was 101%, the viability at 4.68 µM ([3]; IMR-90, read-out: % Cell Survival, Control, log (dose) [M] -5.33) was 103% and the viability at 2.19 µM ([3]; IMR-90, read-out: % Cell Survival, Control, log (dose) [M] -5.66) was 108%. The viability at 1 µM ([3]; IMR-90, read-out: % Cell Survival, Control, log (dose) [M] -6) was 99.9%, the viability at 0.468 µM ([3]; IMR-90, read-out: % Cell Survival, Control, log (dose) [M] -6.33) was 102% and the viability at 0.219 µM ([3]; IMR-90, read-out: % Cell Survival, Control, log (dose) [M] -6.66) was 100%. It also gave a viability at 0.1 µM ([3]; IMR-90, read-out: % Cell Survival, Control, log (dose) [M] -7) of 87.4%, a viability at 0.04677 µM ([3]; IMR-90, read-out: % Cell Survival, Control, log (dose) [M] -7.33) of 102% and a viability at 0.0219 µM ([3]; IMR-90, read-out: % Cell Survival, Control, log (dose) [M] -7.66) of 97.8%. The viability at 0.01 µM ([3]; IMR-90, read-out: % Cell Survival, Control, log (dose) [M] -8) was 95.8%.
